Key:
Assay type in all cases: physicochemical
[1] = Hygroscopicity of sodium salt Form F by DVS at 25° C.; details: for Form and crystallinity change after DVS test: DVS 25° C.
Procedure: Hygroscopicity of sodium salt Form F was evaluated by dynamic vapor sorption (DVS) test at 25° C.

[2] = Characterization of salt forms (XRPD, DSC, TGA, KF, HPLC, NMR/IC)
Procedure: Salt Forms identified in the investigation (Table 16) were further characterized by XRPD, DCS, TGA, KF, HPLC and ^1H NMR/IC (Table 19).
About 419 mg of sodium salt Form F was obtained as off-white solid in 76% yield.

[3] = Solubility in aqueous pH buffers and bio-relevant fluids at 37° C.; details: for XRPD 24 h: residual solid
Procedure: Solubility of the Form B and sodium salt Form F was measured in 7 aqueous pH buffers and bio-relevant fluids including pH 1.2 HCl solution (0.2N), pH 4.5 acetate buffer (50 mM), pH 6.8 phosphate buffer (50 mM), pH 2.0 SGF, pH 6.5 FaSSIF-v1, pH 5.0 FeSSIF-v1 and water at 37° C. for 2 h and 24 h, respectively.
Accurate 20 mg of the Form B was weighed into a 20 mL glass vial. Then, 10 mL of solubility medium was added. The sodium salt Form F amount used was equivalent to 20 mg anhydrous form. Obtained suspensions were stirred at 37° C. at 400 rpm and sampled at 2 hours and at 24 hours, respectively. The samples were centrifuged at 37° C. at 4,000 rpm for 4 min. Supernatants were analyzed by HPLC and pH meter for solubility and pH value, respectively. Residual solids (wet cakes) from the 24 hours samples were also characterized by XRPD to determine physical form.

[4] = Photostability evaluation of sodium salt Form F
[5] = Bulk stability of sodium salt Form F (1 week stress); details: for Bulk (XRPD) / Color / Purity, Bulk (HPLC): Solid state; for Decrease in chemical purity: one week stress at 25° C./92% RH
Procedure: Sodium salt Form F was placed at 25° C./92% RH in an open container, at 40° C./75% RH in an open container and at 60RC in a closed container for 1 week. Samples after the stress were characterized by XRPD and HPLC and inspected for color change.

[6] = FaSSIF-v1, pH 6.5, 37° C., LOQ: 1.5 μg/mL
[7] = pH 1.2 HCl solution (0.2N), 37° C.
[8] = pH 4.5 acetate buffer (50 mM), 37° C.
[9] = pH 4.5 acetate buffer (50 mM), 37° C., LOQ: 1.5 μg/mL
[10] = pH 6.8 phosphate buffer (50 mM), 37° C.
[11] = pH 6.8 phosphate buffer (50 mM), 37° C., LOQ: 1.5 μg/mL
[12] = Solid state, photo (visible light, 1.2 million lux-hrs)
[13] = 25° C./92% RH, open container, 1 week
[14] = 40° C./75% RH, open container, 1 week
[15] = 60° C., tight container, 1 week

CCN(C)S(=O)(=O)[N-]c1ccc(F)c(Oc2ccc3ncn([C@H]4COC5(CCN(C(=O)CC6(O)CCN(c7cc8c(cc7F)c(N7CCC(=O)NC7=O)nn8C)CC6)CC5)C4)c(=O)c3c2)c1C#N.[Na+] [Compound 1 sodium salt Form F]
1st desorp. Weight % change ([1]; 0% RH, 25° C.): 0.0% | 2nd sorp. Weight % change ([1]; 0% RH, 25° C.): 0.0% | 1st desorp. Weight % change ([1]; 10% RH, 25° C.): 0.6% | 2nd sorp. Weight % change ([1]; 10% RH, 25° C.): 0.5% | 1st desorp. Weight % change ([1]; 20% RH, 25° C.): 1.2% | 2nd sorp. Weight % change ([1]; 20% RH, 25° C.): 0.8% | 1st desorp. Weight % change ([1]; 30% RH, 25° C.): 2.2% | 2nd sorp. Weight % change ([1]; 30% RH, 25° C.): 1.2% | 1st desorp. Weight % change ([1]; 40% RH, 25° C.): 3.7% | 1st sorp. Weight % change ([1]; 40% RH, 25° C.): 3.1% | 2nd desorp. Weight % change ([1]; 40% RH, 25° C.): 3.9% | 2nd sorp. Weight % change ([1]; 40% RH, 25° C.): 1.5% | 1st desorp. Weight % change ([1]; 50% RH, 25° C.): 5.0% | 1st sorp. Weight % change ([1]; 50% RH, 25° C.): 3.3% | 2nd desorp. Weight % change ([1]; 50% RH, 25° C.): 5.2% | 2nd sorp. Weight % change ([1]; 50% RH, 25° C.): 2.2% | 1st desorp. Weight % change ([1]; 60% RH, 25° C.): 6.1% | 1st sorp. Weight % change ([1]; 60% RH, 25° C.): 3.4% | 2nd desorp. Weight % change ([1]; 60% RH, 25° C.): 6.2% | 2nd sorp. Weight % change ([1]; 60% RH, 25° C.): 3.5% | 1st desorp. Weight % change ([1]; 70% RH, 25° C.): 7.5% | 1st sorp. Weight % change ([1]; 70% RH, 25° C.): 3.7% | 2nd desorp. Weight % change ([1]; 70% RH, 25° C.): 7.7% | 2nd sorp. Weight % change ([1]; 70% RH, 25° C.): 5.8% | 1st desorp. Weight % change ([1]; 80% RH, 25° C.): 9.7% | 1st sorp. Weight % change ([1]; 80% RH, 25° C.): 4.1% | 2nd desorp. Weight % change ([1]; 80% RH, 25° C.): 9.9% | 2nd sorp. Weight % change ([1]; 80% RH, 25° C.): 7.9% | 1st desorp. Weight % change ([1]; 90% RH, 25° C.): 15.5% | 1st sorp. Weight % change ([1]; 90% RH, 25° C.): 7.0% | 2nd desorp. Weight % change ([1]; 90% RH, 25° C.): 16.4% | 2nd sorp. Weight % change ([1]; 90% RH, 25° C.): 13.1% | 1st desorp. Weight % change ([1]; 95% RH, 25° C.): 16.7% | 1st sorp. Weight % change ([1]; 95% RH, 25° C.): 16.7% | 2nd desorp. Weight % change ([1]; 95% RH, 25° C.): 19.6% | 2nd sorp. Weight % change ([1]; 95% RH, 25° C.): 19.6% | Form and crystallinity change after DVS test [1]: no changes in crystallinity | Form and crystallinity change after DVS test ([1]; listed as sodium salt Form F): no form change and no crystallinity decrease | Hygroscopicity ([1]; below 80% RH, 25° C.): slightly hygroscopic | Water uptake ([1]; from 80% RH to 95% RH at 25° C.): 12.6% | Crystallinity by XRPD ([2]; Table 20, batch of Example 24): Medium crystallinity | DSC, heating rate [10° C./min]: Tonset ([2]; Table 20, batch of Example 24): Tonset 194.7 °C | Melting enthalpy ([2]; Table 20, batch of Example 24): 32.4 J/g | Residual solvent by ^1H NMR, weight % ([2]; Table 20, batch of Example 24): No detectable residual solvent | Water content by Karl Fischer ([2]; Table 20, batch of Example 24): 2.5 equiv. water | Water content by Karl Fischer, weight % ([2]; Table 20, batch of Example 24): 4.6 % by weight | Melting onset (DCS, ° C.) ([2]; Tonset, listed as Sodium salt Form F): Tonset 197.7 °C | Weight loss (TGA) ([2]; at 100° C.): 2.7% at 100° C., | Weight loss (TGA) ([2]; at 100° C.-170° C.): 3.2% at 100° C.- | Weight loss in % at ° C. (Thermogravimetry, heating rate [10° C./min]) ([2]; at 180° C., Table 20, batch of Example 24): 4.8% at 180 °C | Water content (by KF) ([2]; listed as Sodium salt Form F): 6.2% by % by weight | Disproportionation after solubility test (IC) [3]: partially disproportionated | pH of supernatant 24 h ([3]; FaSSIF-v1, pH 6.5, 37° C.): (pH = 6.7) | Solubility 2 h [3, 6]: <LOQ | Solubility 24 h [3, 6]: <LOQ | Solubility 2 h ([3]; FeSSIF-v1, pH 5.0, 37° C.): 6.7 µg/mL | Solubility 24 h ([3]; FeSSIF-v1, pH 5.0, 37° C.): 10.4 µg/mL | pH of supernatant 24 h ([3]; FeSSIF-v1, pH 5.0, 37° C.): (pH = 5.1) | Solubility 2 h ([3]; SGF, pH 2.0, 37° C.): 10.9 µg/mL | Solubility 24 h ([3]; SGF, pH 2.0, 37° C.): 8.6 µg/mL | pH of supernatant 24 h ([3]; SGF, pH 2.0, 37° C.): (pH = 2.2) | Solubility 24 h ([3]; Water, 37° C.): 73.0 µg/mL | pH of supernatant 24 h ([3]; Water, 37° C.): (pH = 8.7) | Solubility 2 h ([3]; Water, 37° C., LOQ: 1.5 μg/mL): 98.8 µg/mL | pH dependence of solubility ([3]; aqueous media, 37° C.): pH dependent solubility | Solubility compared with Form B ([3]; especially pH 1.2 HCl solution, pH 4.5 acetate buffer, SGF, FeSSIF-v1, 37° C.): better solubility than that of the Form B | Solubility 2 h [3, 7]: 19.3 µg/mL | Solubility 24 h [3, 7]: 51.1 µg/mL | pH of supernatant 24 h [3, 7]: (pH = 1.0) | Crystallinity change after solubility test ([3]; pH 1.2 HCl solution and SGF): crystallinity decrease | pH of supernatant 24 h [3, 8]: (pH = 4.6) | Solubility 2 h [3, 9]: <LOQ | Solubility 24 h [3, 9]: 3.7 µg/mL | pH of supernatant 24 h [3, 10]: (pH = 6.9) | Solubility 2 h [3, 11]: <LOQ | Solubility 24 h [3, 11]: <LOQ | XRPD 24 h ([3]; FaSSIF-v1, pH 6.5, 37° C.): No form change | XRPD 24 h ([3]; FeSSIF-v1, pH 5.0, 37° C.): No form change | XRPD 24 h ([3]; Water, 37° C.): No form change | XRPD 24 h [3, 8]: No form change | XRPD 24 h [3, 10]: No form change | Chemical purity decrease after photostability evaluation [4]: about 1% | Bulk (XRPD) [4, 12]: No form change | Color [4, 12]: No change of color | Purity, Bulk (HPLC) [4, 12]: 97.9% | Purity, Control (HPLC) ([4]; photo test, control sample): 98.9% | Crystallinity change ([5]; 60° C. in a tight/closed container, 1 week): slight crystallinity decrease | Bulk (XRPD) [5, 13]: No form change | Color [5, 13]: No change of color | Purity, Bulk (HPLC) [5, 13]: 97.7% | Bulk (XRPD) [5, 14]: No form change | Color [5, 14]: No change of color | Purity, Bulk (HPLC) [5, 14]: 98.5% | Bulk (XRPD) [5, 15]: No form change, slight crystallinity decrease | Color [5, 15]: No change of color | Purity, Bulk (HPLC) [5, 15]: 98.9% | Decrease in chemical purity ([5]; listed as Form F): 1.2% | Decrease in chemical purity ([5]; listed as Sodium salt Form F): about 1.2% | Morphic form stability (form change) ([5]; one week, 25° C./92% RH open, 40° C./75% RH open, 60° C. tight container): no form change

— patent US20250289827A1, “MORPHIC FORMS OF A MUTANT BRAF DEGRADER AND METHODS OF MANUFACTURE THEREOF” (C4 THERAPEUTICS, INC., priority 2022, published 2025)
